Assays:
Jeko-1 = experiment: Combination study Compound 1 + Bcl-2 inhibitor, ATPLite 72 h, mantle cell lymphoma cell line; assay type: cell-based; conditions: combination with Compound 1
Source text: (§1) The method is described as follows. […] These cell lines include GRANTA-519, Jeko-1 and Mino.

GRANTA-519 = experiment: as above; assay type: cell-based; conditions: combination with Compound 1
Source text: as §1

OCI-Ly7 = experiment: Combination study Compound 1 + Bcl-2 inhibitor, ATPLite 72 h, DLBCL GCB cell line; assay type: cell-based; conditions: combination with Compound 1
Source text: (§2) The method is described as follows.

Farage = experiment: as above; assay type: cell-based; conditions: combination with Compound 1
Source text: as §2

SU-DHL-10-epst = experiment: as above; assay type: cell-based; conditions: combination with Compound 1
Source text: as §2

Mino = experiment: Combination study Compound 1 + Bcl-2 inhibitor, ATPLite 72 h, mantle cell lymphoma cell line; assay type: cell-based; conditions: combination with Compound 1
Source text: The method is described as follows. […] Additive effect is CI=1.0. […] Antagonistic effect is CI>1.0. […] These cell lines include GRANTA-519, Jeko-1 and Mino.

U-2932 = experiment: Combination study Compound 1 + Bcl-2 inhibitor, ATPLite 72 h, DLBCL ABC cell line; assay type: cell-based; conditions: combination with Compound 1
Source text: as §2

OCI-Ly3 = experiment: as above; assay type: cell-based; conditions: combination with Compound 1
Source text: as §2

TMD8 = experiment: as above; assay type: cell-based; conditions: combination with Compound 1
Source text: as §2

HBL-1 = experiment: as above; assay type: cell-based; conditions: combination with Compound 1
Source text: as §2

WSU-NHL = experiment: Combination study Compound 1 + Bcl-2 inhibitor, ATPLite 72 h, follicular lymphoma cell line; assay type: cell-based; conditions: combination with Compound 1
Source text: (§3) The method is described as follows. […] Additive effect is CI=1.0. […] Antagonistic effect is CI>1.0.

SU-DHL-4-epst = experiment: Combination study Compound 1 + Bcl-2 inhibitor, ATPLite 72 h, DLBCL GCB cell line; assay type: cell-based; conditions: combination with Compound 1
Source text: as §3

DOHH-2 = experiment: as above; assay type: cell-based; conditions: combination with Compound 1
Source text: as §3

KARPAS-422 = experiment: Combination study Compound 1 + Bcl-2 inhibitor, ATPLite 72 h, follicular lymphoma cell line; assay type: cell-based; conditions: combination with Compound 1
Source text: as §2

RL = experiment: as above; assay type: cell-based; conditions: combination with Compound 1
Source text: as §2

HH = experiment: Combination study Compound 1 + Bcl-2 inhibitor, ATPLite 72 h, T-cell lymphoma cell line; assay type: cell-based; conditions: combination with Compound 1
Source text: (§4) The method is described as follows. […] The cell line includes HH and Karpas-299.

KARPAS-299 = experiment: as above; assay type: cell-based; conditions: combination with Compound 1
Source text: as §4

RPMI-8226 = experiment: Combination study Compound 1 + Bcl-2 inhibitor, ATPLite 72 h, multiple myeloma cell line; assay type: cell-based; conditions: combination with Compound 1
Source text: (§5) The method is described as follows. […] Additive effect is CI=1.0. […] Antagonistic effect is CI>1.0. […] These cell lines include NCI-H929, OMP-2, and RPMI-8226.

NCI-H929 = experiment: as above; assay type: cell-based; conditions: combination with Compound 1
Source text: as §5

OPM-2 = experiment: as above; assay type: cell-based; conditions: combination with Compound 1
Source text: as §5

CLL = experiment: Compound 1 monotherapy in a patient with CLL (clinical trial); assay type: in vivo, human; conditions: 25 mg bid monotherapy
Description: A patient diagnosed with CLL was treated by a monotherapy of Compound 1 (25 mg bid) in a clinical trial. Serum samples of the patient were collected at various points in the treatment. The copy number of STK11 in the serum samples was determined by CytoScan (Affymetrix).

Bcl-2 family genes = experiment: RNAseq gene expression changes in peripheral blood of Compound 1-treated CLL patients; assay type: in vivo, human
Description: RNAseq technology was used to measure gene expression changes in peripheral blood in patients treated with Compound 1. The patients were treated as part of a clinical trial (identifier NCT01476657) which is a phase 1 study in patients with advanced hematologic malignancies. Briefly, RNA was extracted from 200 ul of blood using TRI reagent, followed by RNA purification using a Zymo-Spin column. Timepoints were taken at baseline and cycle 1 day 8 (C1D8), which is 7 days of Compound 1 treatment. Expression was quantified using both FPKM and VOOM methods. Filters were used to prioritize genes identified during this analysis.

[1] = tested on: SU-DHL-4 Compound 1 resistant clones; experiment: CTG (CellTiter-Glo) assay, Compound 1 resistant clones; assay type: cell-based; conditions: Homo sapiens, Cpnd 1 resistant clones
Description: (§6) Experiments were performed to examine the pathway and gene expression alterations in a cell line resistant to PI3K inhibitors. SU-DHL-4 is a DLBCL cell line. […] Five clones from each group were expanded. Cells were harvested for various assays, including CellTiter-Glo® assays, PD, RNA analysis, DNA analysis, and short tandem repeat (STR) fingerprinting.
(§7) Five clones from each group were expanded. Cells were harvested for various assays, including CTG (CellTiter-Glo, Promega, an assay that measures ATP levels as a surrogate for cell number in order to observe cell viability and changes in proliferation rate), PD (pharmacodynamic), RNA analysis, DNA analysis, and short tandem repeat (STR) fingerprinting. […] See, e.g., FIG. 16.

SU-DHL-4 control clones = experiment: CTG (CellTiter-Glo) assay, control (DMSO-treated) clones; assay type: cell-based; conditions: Homo sapiens, read-out: AVG Cpnd 1 IC50
Description: as §6, §7

[2] = tested on: SU-DHL-4 IBR resistant clones; experiment: CTG (CellTiter-Glo) assay, ibrutinib resistant clones; assay type: cell-based; conditions: Homo sapiens, read-out: AVG Cpnd 1 IC50
Description: as §6

[3] = peripheral blood, Compound 1-treated patients, baseline vs C1D8

## CC1(C)CCC(c2ccc(Cl)cc2)=C(CN2CCN(c3ccc(C(=O)NS(=O)(=O)c4ccc(N[C@H](CCN5CCOCC5)CSc5ccccc5)c(S(=O)(=O)C(F)(F)F)c4)cc3)CC2)C1 [ABT-263, (R)-4-(4-((4′-chloro-4,4-dimethyl-3,4,5,6-tetrahydro-[1,1′-biphenyl]-2-yl)methyl)piperazin-1-yl)-N-((4-((4-morpholino-1-(phenylthio)butan-2-yl)amino)-3((trifluoromethyl)sulfonyl)phenyl)sulfonyl)benzamide]
Jeko-1
  CI50 growth inhibition: S (S=0.1 to <0.5)
  CI50 inhibition: S (S=0.1 to <0.5)
  Synergy score growth inhibition: A3 (A3=3 to <10)
  Synergy score inhibition: A3 (A3=3 to <10)
GRANTA-519
  CI50 growth inhibition: S (S=0.1 to <0.5)
  CI50 inhibition: W (W=≥1)
  Synergy score growth inhibition: A3 (A3=3 to <10)
  Synergy score inhibition: A1 (A1=0.0001 to <1)
OCI-Ly7
  CI50 growth inhibition: W (W=≥1)
  Synergy score growth inhibition: A1 (A1=0.0001 to <1)
  Synergy score inhibition: A1 (A1=0.0001 to <1)
Farage
  CI50 growth inhibition: T (T=0.5 to <0.7)
  CI50 inhibition: T (T=0.5 to <0.7)
  Synergy score growth inhibition: A3 (A3=3 to <10)
  Synergy score inhibition: A2 (A2=1 to <3)
SU-DHL-10-epst
  CI50 growth inhibition: U (U=0.7 to <1)
  CI50 inhibition: U (U=0.7 to <1)
  Synergy score growth inhibition: A3 (A3=3 to <10)
  Synergy score inhibition: A2 (A2=1 to <3)
Mino
  CI50 growth inhibition: S (S=0.1 to <0.5)
  CI50 inhibition: T (T=0.5 to <0.7)
  Synergy score growth inhibition: A3 (A3=3 to <10)
  Synergy score inhibition: A2 (A2=1 to <3)
U-2932
  CI50 growth inhibition: T (T=0.5 to <0.7)
  CI50 inhibition: T (T=0.5 to <0.7)
  Synergy score growth inhibition: A3 (A3=3 to <10)
  Synergy score inhibition: A2 (A2=1 to <3)
OCI-Ly3
  CI50 growth inhibition: U (U=0.7 to <1)
  CI50 inhibition: W (W=≥1)
  Synergy score growth inhibition: A3 (A3=3 to <10)
  Synergy score inhibition: A1 (A1=0.0001 to <1)
TMD8
  CI50 growth inhibition: S (S=0.1 to <0.5)
  CI50 inhibition: T (T=0.5 to <0.7)
  Synergy score growth inhibition: A3 (A3=3 to <10)
  Synergy score inhibition: A2 (A2=1 to <3)
HBL-1
  CI50 growth inhibition: S (S=0.1 to <0.5)
  CI50 inhibition: U (U=0.7 to <1)
  Synergy score growth inhibition: A3 (A3=3 to <10)
  Synergy score inhibition: A2 (A2=1 to <3)
WSU-NHL
  CI50 growth inhibition: T (T=0.5 to <0.7)
  CI50 inhibition: S (S=0.1 to <0.5)
  Synergy score growth inhibition: A4 (A4=≥10)
  Synergy score inhibition: A3 (A3=3 to <10)
SU-DHL-4-epst
  CI50 growth inhibition: T (T=0.5 to <0.7)
  CI50 inhibition: S (S=0.1 to <0.5)
  Synergy score growth inhibition: A4 (A4=≥10)
  Synergy score inhibition: A3 (A3=3 to <10)
DOHH-2
  CI50 growth inhibition: S (S=0.1 to <0.5)
  CI50 inhibition: S (S=0.1 to <0.5)
  Synergy score growth inhibition: A4 (A4=≥10)
  Synergy score inhibition: A3 (A3=3 to <10)
KARPAS-422
  CI50 growth inhibition: S (S=0.1 to <0.5)
  CI50 inhibition: T (T=0.5 to <0.7)
  Synergy score growth inhibition: A4 (A4=≥10)
  Synergy score inhibition: A3 (A3=3 to <10)
RL
  CI50 growth inhibition: U (U=0.7 to <1)
  CI50 inhibition: U (U=0.7 to <1)
  Synergy score growth inhibition: A3 (A3=3 to <10)
  Synergy score inhibition: A1 (A1=0.0001 to <1)
HH
  CI50 growth inhibition: U (U=0.7 to <1)
  CI50 inhibition: S (S=0.1 to <0.5)
  Synergy score growth inhibition: A3 (A3=3 to <10)
  Synergy score inhibition: A2 (A2=1 to <3)
KARPAS-299
  Synergy score growth inhibition: A1 (A1=0.0001 to <1)
  Synergy score inhibition: A1 (A1=0.0001 to <1)
RPMI-8226
  CI50 growth inhibition: T (T=0.5 to <0.7)
  CI50 inhibition: U (U=0.7 to <1)
  Synergy score growth inhibition: A3 (A3=3 to <10)
  Synergy score inhibition: A2 (A2=1 to <3)
NCI-H929
  CI50 growth inhibition: U (U=0.7 to <1)
  CI50 inhibition: T (T=0.5 to <0.7)
  Synergy score growth inhibition: A2 (A2=1 to <3)
  Synergy score inhibition: A2 (A2=1 to <3)
OPM-2
  CI50 growth inhibition: T (T=0.5 to <0.7)
  CI50 inhibition: U (U=0.7 to <1)
  Synergy score growth inhibition: A3 (A3=3 to <10)
  Synergy score inhibition: A2 (A2=1 to <3)

## C[C@H](Nc1ncnc2[nH]cnc12)c1cc2cccc(Cl)c2c(=O)n1-c1ccccc1 [Compound 1, (S)-3-(1-((9H-purin-6-yl)amino)ethyl)-8-chloro-2-phenylisoquinolin-1(2H)-one]
CLL; after C7 (cycle 7)
  patient response: progressed
CLL; at C3D1 (cycle 3, day 1)
  patient response: partial response
Bcl-2 family genes; many of the patients having stable disease or partial remission, after 7 days of Compound 1 treatment, FIG. 7
  HRK expression level increase: at least 1.5 fold
Bcl-2 family genes; [3]
  BBC3 (also called PUMA) gene expression change: up-regulated
  BIK gene expression change: downregulated
  BMF gene expression change: up-regulated
  Bcl2L11 (also called BIM) gene expression change: up-regulated
  Bcl2 gene expression change: up-regulated
  HRK gene expression change: up-regulated
  PMAIP1 (also called NOXA) gene expression change: up-regulated
[1]
  IC50: 5420 ± 1080 nM
SU-DHL-4 control clones
  IC50: 241 ± 17 nM
[2]
  IC50: 805 ± 339 nM

Reference: patent publication US11110096B2, “Combination therapies” (Infinity Pharmaceuticals, Inc., priority 2014, dated 2021)
